Paper PMC10254852, “Design, Synthesis and Anticancer Evaluation of Nitroimidazole Radiosensitisers” (Molecules, 2023)
Values after ≈ are worked out from the molar mass of the structure shown. Read-outs that look alike come from different tables or passages of the source.

How the values were obtained:
UT-SCC-74B cells = assay: In vitro cytotoxicity, 4 h exposure oxic/anoxic, 5-day regrowth, sulforhodamine B; format: cell-based, human; conditions: for IC50: Homo sapiens, 4 h exposure, mean ± SEM; for HCR: IC50(oxic)/IC50(anoxic)
From the text: (§1) This allowed derivation of hypoxia cytotoxicity ratios (HCR) as IC50(oxic)/IC50(anoxic) in an HCT116 subclone HCT116/54C and two HNSCC cell lines, FaDu and UT-SCC-74B (Table 2).
(§2) HCT116/54C is an HCT116 subline that originated from a mixed culture with UT-SCC-54C cells, which was supplied alongside UT-SCC-74B by Prof. Bradly Wouters (University Health Network, Toronto, ON, Canada). HCT116/54C and UT-SCC-74B cells were passaged in minimum essential media (MEM, ThermoFisher Scientific, Waltham, MA, USA) with 10% foetal calf serum (FCS, Moregate Biotech, Hamilton, New Zealand), 4.5 mg/mL D-glucose (Sigma-Aldrich, St. Louis, MO, USA) and 20 mM HEPES (Sigma-Aldrich). FaDu cells were sourced from American Type Culture Collection and cultured in αMEM (ThermoFisher Scientific) with 10% FCS. All cell lines were confirmed mycoplasma-free by PlasmoTest (InvivoGen, San Diego, CA, USA) and were derived from STR-authenticated cryopreserved stocks. Log-phase cells were seeded into 96-well plates at 800 cells/well for HCT116/54C and 1500 cells/well for FaDu. […] After drug washout, cells were grown and stained as for the oxic IC50 assays. The hypoxic cytotoxicity ratio HCR was determined as HCR = IC50(oxic)/IC50(anoxic).

HCT116/54C cells [1] = assay: as above; format: cell-based, human; conditions: HCT116/54C; for HCR: IC50(oxic)/IC50(anoxic); for IC50: Homo sapiens, 4 h exposure, mean ± SEM, n = 3–4
From the text: as §1, §2

HCT116/54C cells [2] = assay: In vitro radiosensitisation under anoxia, clonogenic survival; format: cell-based, human; conditions: compound 1 mM, radiation dose for 1% survival/radiation dose for 1% survival with compound, mean ± SEM
Description: Next, we evaluated in vitro radiosensitisation by using a representative subset of nitroimidazole compounds in HCT116/54C cells with a clonogenic survival endpoint. Radiosensitisation was determined by treating cells under anoxia with a range of radiation doses alone and with compounds at equimolar doses (1 mM). Sensitiser enhancement ratios (SER) were calculated as the ratio of radiation dose required for 1% clonogenic survival alone or with compound (Table 3).
Cells were seeded onto 96-well plates at 10^5 cells per well and allowed to attach for 2 h. […] The plates were irradiated (Eldorado 78 ^60Co teletherapy unit, ~2 Gy/min) with 15 Gy under anoxia at room temperature for SR experiments. A metal wedge placed on the top of the metal chamber was used to achieve a graduated radiation dose across the plate, varying from 7 to 29 Gy, calibrated by Fricke dosimetry with ammonium thiocyanate as previously described for SER experiments. The control plate (compound alone, no radiation) was left inside the anaerobic chamber at room temperature during the irradiation period. After treatment, the cells were trypsinized and suspended in usual media + 1% penicillin-streptomycin (ThermoFisher Scientific), and 10-fold serial dilutions were plated for clonogenic survival. After 10 days, plates were stained with methylene blue (2 g/L in EtOH/H2O, 1:1 v/v) and colonies with more than 50 cells were counted. The surviving fraction (SF) was determined as: SF = PE(irradiated)/PE(control) where the plating efficiency (PE) = (No. of colonies)/(No. of cells plated). SF was plotted against radiation dose. Survival ratios (SR) were calculated: SR = (cell survival with radiation)/(cell survival with drug + radiation). Sensitizer enhancement ratios (SER) were calculated: SER = (radiation dose for 1% survival without compound)/(radiation dose for 1% survival with compound).

[3] = Solubility in αMEM culture medium (HPLC of saturated solutions); format: physicochemical; conditions: αMEM culture medium with 5% foetal calf serum and 1% DMSO, plasma or biological fluid, kinetic from dmso stock, α-MEM culture medium containing 5% foetal calf serum, 37 °C
[4] = Stability in αMEM culture medium (HPLC after 24 h); format: physicochemical; conditions: after 24 h incubation at 37 °C
Description: The stability of the same solutions after 24 h incubation at 37 °C was measured by HPLC analysis.

FaDu cells = assay: In vitro cytotoxicity, 4 h exposure oxic/anoxic, 5-day regrowth, sulforhodamine B; format: cell-based; conditions: for IC50: Homo sapiens, 4 h exposure, mean ± SEM; for HCR: IC50(oxic)/IC50(anoxic)
From the text: as §1, §2

[5] = anoxic, n = 3–4, read-out: IC50 Anoxic
[6] = oxic, n = 3–4, read-out: IC50 Oxic

solubility [3]	% Stability in αMEM [4]	melting point	SMILES	IC50 (UT-SCC-74B cells; [5])	IC50 (UT-SCC-74B cells; [6])	HCR (UT-SCC-74B cells)	HCR (HCT116/54C cells [1])	IC50 (HCT116/54C cells [1]; anoxic, read-out: IC50 Anoxic)	IC50 (HCT116/54C cells [1]; oxic, read-out: IC50 Oxic)	SER at 1 mM (HCT116/54C cells [2])	IC50 (FaDu cells; [5])	IC50 (FaDu cells; [6])	HCR (FaDu cells)
110 mM (≈ 30.8 mg/mL)	99.3%	127 to 129 °C	O=[N+]([O-])c1nccn1CS(=O)(=O)NCC(O)CO (stereo not drawn) [Compound 13, N-(2,3-Dihydroxypropyl)-1-(2-nitro-1H-imidazol-1-yl)methanesulfonamide]	2.6 ± 0.1 mM	10.3 ± 1.7 mM	4.0	3.5	4.1 ± 0.1 mM	14.5 ± 2.9 mM	1.00 ± 0.00	4.3 ± 0.3 mM	8.7 ± 1.1 mM	2.0
95.8 mM (≈ 29.7 mg/mL)	98.5%	128 to 131 °C	O=[N+]([O-])c1nccn1CS(=O)(=O)NC(CO)C(O)CO (stereo not drawn) [Compound 14, 1-(2-Nitro-1H-imidazol-1-yl)-N-(1,3,4-trihydroxybutan-2-yl)methanesulfonamide]				1.3	12.6 ± 0.5 mM	16.4 ± 3 mM	1.00 ± 0.00	7.9 ± 1.1 mM	5.3 ± 1.1 mM	0.67
84.3 mM (≈ 24.8 mg/mL)	99.9%	120 to 123 °C	O=[N+]([O-])c1nccn1CCS(=O)(=O)NCC(O)CO (stereo not drawn) [Compound 15, N-(2,3-Dihydroxypropyl)-2-(2-nitro-1H-imidazol-1-yl)ethane-1-sulfonamide]				>1.9	12.8 ± 4.4 mM	> 25 mM		7.3 ± 0.9 mM	> 25 mM	>3.4
83 mM (≈ 27.7 mg/mL)	99.9%		O=[N+]([O-])c1cncn1CCS(=O)(=O)NCCN1CCOCC1 [Compound 16, N-(2-Morpholinoethyl)-2-(5-nitro-1H-imidazol-1-yl)ethane-1-sulfonamide]	10.3 ± 2.6 mM	14.1 ± 2.1 mM	1.4	1.0	12.9 ± 0.9 mM	12.8 ± 1.5 mM	1.31 ± 0.01	6.1 ± 0.8 mM	> 16 mM	>2.6
> 101 mM	100.0%	124 to 127 °C	O=[N+]([O-])c1nccn1CCNS(=O)(=O)CCO [Compound 17, 2-Hydroxy-N-(2-(2-nitro-1H-imidazol-1-yl)ethyl)ethane-1-sulfonamide]	2.9 ± 0.5 mM	> 20 mM	>6.8	>5.3	3.2 ± 0.2 mM	> 17 mM	1.35 ± 0.02	2.8 ± 0.6 mM	> 18 mM	>6.4
